Where a SMILES comes first, the peptide text is derived from it. Bridges are numbered along the chain shown (N, C = ends). [ ]: non-standard residue; d: D form. The star is where a group is joined. Palmitoyl = CCCCCCCCCCCCCCCC(=O)*; Aib = CC(C)(N)C(=O)O
Tests used:
Type in all cases: cell-based
GLP-1 receptor = target: T1, GLP-1 receptor (Homo sapiens, UniProt P43220); experiment: cAMP synthesis functional assay (firefly luciferase reporter in HEK293 cells), GLP-1 receptor; conditions: for EC50: GLP-1 Receptor EC50, nM
T1 construct: expressed in transfected cells; host or cells: HEK293
T1 sequence (P43220 24-463, species assumed): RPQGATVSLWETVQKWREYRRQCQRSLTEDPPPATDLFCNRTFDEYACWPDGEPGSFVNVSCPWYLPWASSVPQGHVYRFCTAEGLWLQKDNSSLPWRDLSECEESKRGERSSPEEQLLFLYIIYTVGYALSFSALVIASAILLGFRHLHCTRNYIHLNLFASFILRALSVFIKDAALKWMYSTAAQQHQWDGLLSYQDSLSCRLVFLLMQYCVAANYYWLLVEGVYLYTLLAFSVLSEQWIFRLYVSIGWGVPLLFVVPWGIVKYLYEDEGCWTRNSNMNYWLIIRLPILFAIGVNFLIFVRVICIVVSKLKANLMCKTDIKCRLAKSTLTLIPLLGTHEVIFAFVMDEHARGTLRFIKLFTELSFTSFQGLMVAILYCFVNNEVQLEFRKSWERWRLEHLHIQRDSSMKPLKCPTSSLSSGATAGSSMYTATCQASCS

glucagon receptor = target: T2, glucagon receptor (Homo sapiens, UniProt P47871); experiment: cAMP synthesis functional assay (firefly luciferase reporter in HEK293 cells), glucagon receptor
T2 construct: expressed in transfected cells; host or cells: HEK293
T2 sequence (P47871 26-477): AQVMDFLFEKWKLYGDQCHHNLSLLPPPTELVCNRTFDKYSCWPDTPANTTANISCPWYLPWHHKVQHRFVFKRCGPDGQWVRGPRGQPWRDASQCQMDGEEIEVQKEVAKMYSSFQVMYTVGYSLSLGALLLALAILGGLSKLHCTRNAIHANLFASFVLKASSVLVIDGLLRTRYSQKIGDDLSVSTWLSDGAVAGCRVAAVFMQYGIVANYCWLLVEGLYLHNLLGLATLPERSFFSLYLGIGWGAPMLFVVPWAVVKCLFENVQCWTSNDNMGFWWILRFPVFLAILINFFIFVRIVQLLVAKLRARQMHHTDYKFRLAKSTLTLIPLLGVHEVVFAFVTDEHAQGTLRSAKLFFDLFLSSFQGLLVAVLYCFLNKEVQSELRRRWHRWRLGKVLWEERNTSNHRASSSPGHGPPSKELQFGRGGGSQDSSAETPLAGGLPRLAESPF

GIP receptor = target: T3, GIP receptor (Homo sapiens, UniProt P48546); experiment: cAMP synthesis functional assay (firefly luciferase reporter in HEK293 cells), GIP receptor
T3 construct: expressed in transfected cells; host or cells: HEK293
T3 sequence (P48546 22-466): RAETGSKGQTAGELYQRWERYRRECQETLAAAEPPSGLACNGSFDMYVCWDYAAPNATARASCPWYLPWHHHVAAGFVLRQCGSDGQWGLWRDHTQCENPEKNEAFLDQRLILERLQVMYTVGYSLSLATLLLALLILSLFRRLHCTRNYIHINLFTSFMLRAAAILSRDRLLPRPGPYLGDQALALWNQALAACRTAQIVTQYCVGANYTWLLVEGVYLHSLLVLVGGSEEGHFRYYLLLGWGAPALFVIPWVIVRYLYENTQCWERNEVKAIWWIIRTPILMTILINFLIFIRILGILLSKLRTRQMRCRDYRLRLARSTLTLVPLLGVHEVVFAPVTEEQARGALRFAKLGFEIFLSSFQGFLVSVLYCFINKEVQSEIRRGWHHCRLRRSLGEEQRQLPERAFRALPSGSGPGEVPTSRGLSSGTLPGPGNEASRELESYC

[1] = Table 1, relative to the native hormone of the indicated receptor
[2] = Table 4, relative to the native hormone

Row | SMILES | GLP-1 Receptor relative activity (GLP-1 receptor; [1]) [%] | Glucagon Receptor relative activity (glucagon receptor; [1]) [%] | GIP Receptor relative activity (GIP receptor; [1]) [%] | EC50 (GLP-1 receptor; Table 1) [nM] | GLP-1 Receptor relative activity (GLP-1 receptor; [2]) [%] | Glucagon Receptor relative activity (glucagon receptor; [2]) [%] | EC50 (GIP receptor; GIP Receptor EC50, nM, Table 4) [nM] | GIP Receptor relative activity (GIP receptor; [2]) [%]
1 | CC[C@H](C)[C@H](NC(=O)[C@H](Cc1ccccc1)NC(=O)[C@H](CCC(=O)O)NC(=O)[C@@H]1CCCCNC(=O)CC[C@H](NC(=O)[C@H](CC(=O)O)NC(=O)[C@H](CC(C)C)NC(=O)[C@H](Cc2ccc(O)cc2)NC(=O)[C@H](CCCCN)NC(=O)[C@H](CO)NC(=O)[C@H](Cc2ccc(O)cc2)NC(=O)[C@H](CC(=O)O)NC(=O)[C@H](CO)NC(=O)[C@@H](NC(=O)[C@H](Cc2ccccc2)NC(=O)[C@@H](NC(=O)CNC(=O)[C@H](CCC(N)=O)NC(=O)[C@H](CO)NC(=O)[C@@H](N)Cc2ccc(O)cc2)[C@@H](C)O)[C@@H](C)O)C(=O)N[C@@H](CCC(N)=O)C(=O)N[C@@H](C)C(=O)N[C@@H](C)C(=O)N1)C(=O)N[C@@H](C)C(=O)N[C@@H](Cc1c[nH]c2ccccc12)C(=O)N[C@@H](CC(C)C)C(=O)N[C@@H](CC(C)C)C(=O)N[C@@H](C)C(=O)NCC(=O)NCC(=O)N1CCC[C@H]1C(=O)N[C@@H](CO)C(=O)N[C@@H](CO)C(=O)NCC(=O)N[C@@H](C)C(=O)N1CCC[C@H]1C(=O)N1CCC[C@H]1C(=O)N1CCC[C@H]1C(=O)N[C@@H](CO)C(N)=O [mt-139] (H-YSQGTFTSDYSKYLDEQAAKEFIAWLLAGGPSSGAPPPS-NH2; lactam 16-20; N-terminus assumed) | 41.46 | 561.11 | 12.22 |  |  |  |  | 
2 | CC[C@H](C)[C@H](NC(=O)[C@H](Cc1ccccc1)NC(=O)[C@H](CCC(=O)O)NC(=O)[C@@H]1CCCCNC(=O)CC[C@H](NC(=O)[C@H](CC(=O)O)NC(=O)[C@H](CC(C)C)NC(=O)[C@H](C)NC(=O)[C@H](CCCCN)NC(=O)[C@H](CO)NC(=O)[C@H](Cc2ccc(O)cc2)NC(=O)[C@H](CC(=O)O)NC(=O)[C@H](CO)NC(=O)[C@@H](NC(=O)[C@H](Cc2ccccc2)NC(=O)[C@@H](NC(=O)CNC(=O)[C@H](CCC(N)=O)NC(=O)[C@H](CO)NC(=O)[C@@H](N)Cc2c[nH]cn2)[C@@H](C)O)[C@@H](C)CC)C(=O)N[C@@H]([C@@H](C)CC)C(=O)N[C@@H](Cc2c[nH]cn2)C(=O)N[C@@H](CCC(N)=O)C(=O)N1)C(=O)N[C@@H](C)C(=O)N[C@@H](Cc1c[nH]c2ccccc12)C(=O)N[C@@H](CC(C)C)C(=O)N[C@@H](CCSC)C(=O)N[C@@H](CC(N)=O)C(=O)N[C@H](C(N)=O)[C@@H](C)O [mt-108] (H-HSQGTFISDYSKALDEIHQKEFIAWLMNT-NH2; lactam 16-20; N-terminus assumed) | 12.50 | 68.42 | 0.52 |  |  |  |  | 
3 | CC[C@H](C)[C@H](NC(=O)[C@H](CO)NC(=O)[C@H](Cc1ccc(O)cc1)NC(=O)[C@H](CC(=O)O)NC(=O)[C@H](CO)NC(=O)[C@@H](NC(=O)[C@H](Cc1ccccc1)NC(=O)[C@@H](NC(=O)CNC(=O)[C@H](CCC(N)=O)NC(=O)[C@H](C)NC(=O)[C@@H](N)Cc1ccc(O)cc1)[C@@H](C)O)[C@@H](C)O)C(=O)N[C@@H](Cc1ccc(O)cc1)C(=O)N[C@@H](CCSC)C(=O)N[C@@H](CC(=O)O)C(=O)N[C@H]1CCC(=O)NCCCC[C@@H](C(=O)N[C@@H](CCC(=O)O)C(=O)N[C@@H](Cc2ccccc2)C(=O)N[C@H](C(=O)N[C@@H](CC(N)=O)C(=O)N[C@@H](Cc2c[nH]c3ccccc23)C(=O)N[C@@H](CC(C)C)C(=O)N[C@@H](CC(C)C)C(=O)N[C@@H](C)C(=O)NCC(=O)NCC(=O)N2CCC[C@H]2C(=O)N[C@@H](CO)C(=O)N[C@@H](CO)C(=O)NCC(=O)N[C@@H](C)C(=O)N2CCC[C@H]2C(=O)N2CCC[C@H]2C(=O)N2CCC[C@H]2C(=O)N[C@@H](CO)C(N)=O)C(C)C)NC(=O)[C@H](C)NC(=O)[C@H](C)NC(=O)[C@H](CCC(N)=O)NC1=O [mt-144] (H-YAQGTFTSDYSIYMDEQAAKEFVNWLLAGGPSSGAPPPS-NH2; lactam 16-20; N-terminus assumed) | 141.67 | 16.77 | 18.54 | 0.036 |  |  |  | 
4 | CC[C@H](C)[C@@H]1NC(=O)[C@@H](NC(=O)[C@H](CC(=O)O)NC(=O)[C@H](CC(C)C)NC(=O)[C@H](Cc2ccc(O)cc2)NC(=O)[C@H](CCCCN)NC(=O)[C@H](CO)NC(=O)[C@H](Cc2ccc(O)cc2)NC(=O)[C@H](CC(=O)O)NC(=O)[C@H](CO)NC(=O)[C@@H](NC(=O)[C@H](Cc2ccccc2)NC(=O)[C@@H](NC(=O)CNC(=O)[C@H](CCC(N)=O)NC(=O)[C@H](CO)NC(=O)[C@@H](N)Cc2c[nH]cn2)[C@@H](C)O)[C@@H](C)O)CCC(=O)NCCCC[C@@H](C(=O)N[C@@H](CC(=O)O)C(=O)N[C@@H](Cc2ccccc2)C(=O)N[C@H](C(=O)N[C@@H](CC(N)=O)C(=O)N[C@@H](Cc2c[nH]c3ccccc23)C(=O)N[C@@H](CC(C)C)C(=O)N[C@@H](CC(C)C)C(=O)N[C@@H](C)C(=O)N[C@@H](CCC(N)=O)C(N)=O)C(C)C)NC(=O)[C@H](CCC(N)=O)NC(=O)[C@H](Cc2c[nH]cn2)NC1=O [mt-111] (H-HSQGTFTSDYSKYLDEIHQKDFVNWLLAQ-NH2; lactam 16-20; N-terminus assumed) | 10.61 | 85.19 | 0.78 | 0.66 |  |  |  | 
5 | CCCCCCCCCCCCCCCC(=O)NCCCC[C@H](NC(=O)[C@H](CO)NC(=O)[C@@H]1CCCN1C(=O)[C@@H]1CCCN1C(=O)[C@@H]1CCCN1C(=O)[C@H](C)NC(=O)CNC(=O)[C@H](CO)NC(=O)[C@H](CO)NC(=O)[C@@H]1CCCN1C(=O)CNC(=O)CNC(=O)[C@H](C)NC(=O)[C@H](CC(C)C)NC(=O)[C@H](CC(C)C)NC(=O)[C@H](Cc1c[nH]c2ccccc12)NC(=O)[C@H](CC(N)=O)NC(=O)[C@@H](NC(=O)[C@H](Cc1ccccc1)NC(=O)[C@H](CCC(=O)O)NC(=O)C(C)(C)NC(=O)[C@H](C)NC(=O)[C@H](C)NC(=O)[C@H](CCC(N)=O)NC(=O)[C@H](CCCCN)NC(=O)[C@H](CC(=O)O)NC(=O)[C@H](CC(C)C)NC(=O)[C@H](Cc1ccc(O)cc1)NC(=O)[C@@H](NC(=O)[C@H](CO)NC(=O)[C@H](Cc1ccc(O)cc1)NC(=O)[C@H](CC(=O)O)NC(=O)[C@H](CO)NC(=O)[C@@H](NC(=O)[C@H](Cc1ccccc1)NC(=O)[C@@H](NC(=O)CNC(=O)[C@H](CCC(N)=O)NC(=O)C(C)(C)NC(=O)[C@@H](N)Cc1ccc(O)cc1)[C@@H](C)O)[C@@H](C)CC)[C@@H](C)CC)C(C)C)C(N)=O [mt-358] (H-Y[Aib]QGTFISDYSIYLDKQAA[Aib]EFVNWLLAGGPSSGAPPPSK(Palmitoyl)-NH2; N-terminus assumed) |  |  |  |  | 13.04 | 1266.00 | 0.0045 | 305.62
6 | CC[C@H](C)[C@H](NC(=O)[C@H](Cc1ccccc1)NC(=O)[C@@H](NC(=O)CNC(=O)[C@H](CCC(N)=O)NC(=O)[C@H](C)NC(=O)[C@@H](N)Cc1ccc(O)cc1)[C@@H](C)O)C(=O)N[C@@H](CO)C(=O)N[C@@H](CC(=O)O)C(=O)N[C@@H](Cc1ccc(O)cc1)C(=O)N[C@@H](CO)C(=O)N[C@@H](CCCCN)C(=O)N[C@@H](Cc1ccc(O)cc1)C(=O)N[C@@H](CC(C)C)C(=O)N[C@@H](CC(=O)O)C(=O)N[C@H]1CCC(=O)NCCCC[C@@H](C(=O)N[C@@H](CCC(=O)O)C(=O)N[C@@H](Cc2ccccc2)C(=O)N[C@H](C(=O)N[C@@H](CC(N)=O)C(=O)N[C@@H](Cc2c[nH]c3ccccc23)C(=O)N[C@@H](CC(C)C)C(=O)N[C@@H](CC(C)C)C(=O)N[C@@H](C)C(=O)NCC(=O)NCC(=O)N2CCC[C@H]2C(=O)N[C@@H](CO)C(=O)N[C@@H](CO)C(=O)NCC(=O)N[C@@H](C)C(=O)N2CCC[C@H]2C(=O)N2CCC[C@H]2C(=O)N2CCC[C@H]2C(=O)N[C@@H](CO)C(N)=O)C(C)C)NC(=O)[C@H](C)NC(=O)[C@H](C)NC(=O)[C@H](CCC(N)=O)NC1=O [mt-146] (H-YAQGTFISDYSKYLDEQAAKEFVNWLLAGGPSSGAPPPS-NH2; lactam 16-20; N-terminus assumed) | 0.25 | 480.00 | 13.30 |  |  |  |  | 
7 | CC[C@H](C)[C@H](NC(=O)[C@H](CO)NC(=O)[C@H](Cc1ccc(O)cc1)NC(=O)[C@H](CC(=O)O)NC(=O)[C@H](CO)NC(=O)[C@@H](NC(=O)[C@H](Cc1ccccc1)NC(=O)[C@@H](NC(=O)CNC(=O)[C@H](CCC(=O)O)NC(=O)[C@H](C)NC(=O)[C@@H](N)Cc1c[nH]cn1)[C@@H](C)O)[C@@H](C)CC)C(=O)N[C@@H](C)C(=O)N[C@@H](CCSC)C(=O)N[C@@H](CC(=O)O)C(=O)N[C@H]1CCC(=O)NCCCC[C@@H](C(=O)N[C@@H](CC(=O)O)C(=O)N[C@@H](Cc2ccccc2)C(=O)N[C@H](C(=O)N[C@@H](CC(N)=O)C(=O)N[C@@H](Cc2c[nH]c3ccccc23)C(=O)N[C@@H](CC(C)C)C(=O)N[C@@H](CC(C)C)C(=O)N[C@@H](C)C(=O)N[C@@H](CCC(N)=O)C(N)=O)C(C)C)NC(=O)[C@H](CCC(N)=O)NC(=O)[C@H](Cc2c[nH]cn2)NC(=O)[C@H]([C@@H](C)CC)NC1=O [mt-95] (H-HAEGTFISDYSIAMDEIHQKDFVNWLLAQ-NH2; lactam 16-20; N-terminus assumed) | 0.08 | 0.04 | 10.54 |  |  |  |  | 

From patent US9062124B2, “GIP-based mixed agonists for treatment of metabolic disorders and obesity” (priority 2008, dated 2015)
